Measurements as given in PMC4389228, “Ainsliadimer A selectively inhibits IKKα/β by covalently binding a conserved cysteine” (Nature Communications, 2015).

What was measured:
[1] = biological target: T1, IKKβ (Homo sapiens, UniProt O14920); experiment: direct biotin labelling of purified protein, streptavidin pull-down and blot, competed by ainsliadimer A; time-dependent binding
T1 construct: gene IKBKB; purified Flag-IKKβ
T1 sequence (O14920 1-756): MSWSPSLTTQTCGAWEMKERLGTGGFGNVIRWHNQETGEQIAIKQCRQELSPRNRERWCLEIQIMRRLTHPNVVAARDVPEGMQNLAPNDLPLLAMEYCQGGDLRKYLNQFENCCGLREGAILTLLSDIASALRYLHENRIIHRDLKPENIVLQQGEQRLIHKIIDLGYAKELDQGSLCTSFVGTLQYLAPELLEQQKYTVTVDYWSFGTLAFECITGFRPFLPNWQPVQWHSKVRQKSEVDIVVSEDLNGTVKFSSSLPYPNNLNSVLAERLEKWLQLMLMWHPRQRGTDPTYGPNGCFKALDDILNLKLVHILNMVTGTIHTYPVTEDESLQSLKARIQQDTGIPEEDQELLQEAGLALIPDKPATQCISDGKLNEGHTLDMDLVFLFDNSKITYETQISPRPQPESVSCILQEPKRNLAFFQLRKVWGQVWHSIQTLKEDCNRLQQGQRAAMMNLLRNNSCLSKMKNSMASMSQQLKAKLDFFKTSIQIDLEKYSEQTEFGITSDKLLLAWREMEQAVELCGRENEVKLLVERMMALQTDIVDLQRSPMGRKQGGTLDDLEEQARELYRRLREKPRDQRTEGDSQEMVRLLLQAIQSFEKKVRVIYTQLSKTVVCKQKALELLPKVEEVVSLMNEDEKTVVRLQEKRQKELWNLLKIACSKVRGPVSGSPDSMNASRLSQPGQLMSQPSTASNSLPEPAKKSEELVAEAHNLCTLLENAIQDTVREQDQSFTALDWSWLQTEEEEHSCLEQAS

[2] = biological target: T2, IKKα (Homo sapiens, UniProt O15111); experiment: direct biotin labelling of purified protein, streptavidin pull-down and blot; type: binding
T2 construct: gene CHUK; purified Flag-IKKα
T2 sequence (O15111 1-745): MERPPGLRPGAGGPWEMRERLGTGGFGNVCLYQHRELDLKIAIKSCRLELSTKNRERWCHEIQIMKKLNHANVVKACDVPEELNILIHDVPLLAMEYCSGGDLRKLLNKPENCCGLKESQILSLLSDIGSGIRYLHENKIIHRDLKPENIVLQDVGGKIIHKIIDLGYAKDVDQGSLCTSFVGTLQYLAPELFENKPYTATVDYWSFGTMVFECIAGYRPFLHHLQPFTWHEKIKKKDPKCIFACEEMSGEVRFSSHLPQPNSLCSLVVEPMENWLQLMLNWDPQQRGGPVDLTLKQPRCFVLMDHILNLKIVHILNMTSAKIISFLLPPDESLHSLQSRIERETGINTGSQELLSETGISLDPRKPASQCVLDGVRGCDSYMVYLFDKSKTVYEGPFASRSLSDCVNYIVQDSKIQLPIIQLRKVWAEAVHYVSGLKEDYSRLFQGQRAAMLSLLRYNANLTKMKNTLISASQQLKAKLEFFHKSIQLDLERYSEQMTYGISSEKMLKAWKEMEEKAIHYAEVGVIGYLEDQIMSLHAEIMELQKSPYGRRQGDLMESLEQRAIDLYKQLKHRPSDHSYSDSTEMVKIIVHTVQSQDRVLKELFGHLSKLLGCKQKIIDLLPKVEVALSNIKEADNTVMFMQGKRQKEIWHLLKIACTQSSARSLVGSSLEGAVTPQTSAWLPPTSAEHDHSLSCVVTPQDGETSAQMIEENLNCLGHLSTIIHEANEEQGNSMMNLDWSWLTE

C=C1C(=O)O[C@@H]2[C@@H]3[C@@H](C[C@H](OC(=O)CCOCCOCCOCCNC(=O)CCCC[C@@H]4SC[C@@H]5NC(=O)N[C@@H]54)[C@]34CC[C@]3(O)[C@@H]5[C@H]6OC(=O)C(=C)[C@@H]6CCC(=C)[C@@H]5C[C@]43O)C(=C)CC[C@@H]12 [Probe]
direct biotin labelling of purified protein, streptavidin pull-down and blot, co [1]: we also observed a similar interaction pattern between Probe and recombinant IKKβ (Fig. 4d)
direct biotin labelling of purified protein, streptavidin pull-down and blot [2]: suggesting that there is a strong interaction between Probe and recombinant IKKα
